{"source": "EPA's CvTdb concentration-time database", "key": {"Rat [1]": {"system": "Rat", "experiment": "concentration in brain after dosing", "settings": "864 h; dosed: Perfluorodecanoic acid; 10 mg/kg; oral; Male; Harlan Sprague Dawley"}, "Rat [2]": {"system": "Rat", "experiment": "concentration in liver after dosing", "settings": "3360 h; dosed: Perfluorodecanoic acid; 10 mg/kg; oral; Male; Harlan Sprague Dawley"}, "Rat [3]": {"system": "Rat", "experiment": "concentration in brain after dosing", "settings": "24 h; dosed: Perfluorodecanoic acid; 10 mg/kg; oral; Female; Harlan Sprague Dawley"}, "Rat [4]": {"system": "Rat", "experiment": "concentration in plasma after dosing", "settings": "dosed: Perfluorodecanoic acid, 2 mg/kg, iv, Male, F344"}, "Rat [5]": {"system": "Rat", "experiment": "concentration in liver after dosing", "settings": "24 h; dosed: Perfluorodecanoic acid; 10 mg/kg; oral; Male; Harlan Sprague Dawley"}, "Rat [6]": {"system": "Rat", "experiment": "concentration in liver after dosing", "settings": "3360 h; dosed: Perfluorodecanoic acid; 10 mg/kg; oral; Female; Harlan Sprague Dawley"}, "Rat [7]": {"system": "Rat", "experiment": "concentration in plasma after dosing", "settings": "6 h; dosed: Di-n-butyl phthalate; 20 mg/kg; iv; Male; Sprague-Dawley"}, "Rat [8]": {"system": "Rat", "experiment": "concentration in plasma after dosing", "settings": "40 min; dosed: dichloroacetic acid; 100 mg/kg; oral; Male; F344"}, "Rat [9]": {"system": "Rat", "experiment": "concentration in plasma after dosing", "settings": "3 h; dosed: Wyeth-14643; 2.0 mg/kg; oral; Male; Sprague-Dawley"}, "Rat [10]": {"system": "Rat", "experiment": "concentration in plasma after dosing", "settings": "dosed: Wyeth-14643, 1.0 mg/kg, oral, Male, Sprague-Dawley"}, "Rat [11]": {"system": "Rat", "experiment": "concentration in liver after dosing", "settings": "2 h; dosed: Bis 2-Chloroethoxy Methane; 20 mg/kg; iv; Male; F344"}, "Rat [12]": {"system": "Rat", "experiment": "concentration in liver after dosing", "settings": "10 min; dosed: Bis 2-Chloroethoxy Methane; 20 mg/kg; iv; Female; F344"}, "Rat [13]": {"system": "Rat", "experiment": "concentration in heart after dosing", "settings": "3 h; dosed: Bis 2-Chloroethoxy Methane; 20 mg/kg; iv; Male; F344"}, "Rat [14]": {"system": "Rat", "experiment": "concentration in liver after dosing", "settings": "5 h; dosed: Bis 2-Chloroethoxy Methane; 20 mg/kg; iv; Male; F344"}, "Rat [15]": {"system": "Rat", "experiment": "concentration in plasma after dosing", "settings": "4 h; dosed: Bis 2-Chloroethoxy Methane; 20 mg/kg; iv; Male; F344"}, "Rat [16]": {"system": "Rat", "experiment": "concentration in thymus after dosing", "settings": "6 h; dosed: Bis 2-Chloroethoxy Methane; 20 mg/kg; iv; Female; F344"}, "Rat [17]": {"system": "Rat", "experiment": "concentration in heart after dosing", "settings": "1 h; dosed: Bis 2-Chloroethoxy Methane; 20 mg/kg; iv; Male; F344"}, "Rat [18]": {"system": "Rat", "experiment": "concentration in plasma after dosing", "settings": "3 h; dosed: Bis 2-Chloroethoxy Methane; 20 mg/kg; iv; Female; F344"}, "Rat [19]": {"system": "Rat", "experiment": "concentration in liver after dosing", "settings": "40 min; dosed: Bis 2-Chloroethoxy Methane; 20 mg/kg; iv; Female; F344"}, "Rat [20]": {"system": "Rat", "experiment": "concentration in heart after dosing", "settings": "5 h; dosed: Bis 2-Chloroethoxy Methane; 20 mg/kg; iv; Male; F344"}, "Rat [21]": {"system": "Rat", "experiment": "concentration in thymus after dosing", "settings": "5 h; dosed: Bis 2-Chloroethoxy Methane; 20 mg/kg; iv; Male; F344"}, "Rat [22]": {"system": "Rat", "experiment": "concentration in plasma after dosing", "settings": "1 h; dosed: Bis 2-Chloroethoxy Methane; 20 mg/kg; iv; Female; F344"}, "Rat [23]": {"system": "Rat", "experiment": "concentration in thymus after dosing", "settings": "2 h; dosed: Bis 2-Chloroethoxy Methane; 20 mg/kg; iv; Male; F344"}, "Rat [24]": {"system": "Rat", "experiment": "concentration in thymus after dosing", "settings": "1 h; dosed: Bis 2-Chloroethoxy Methane; 20 mg/kg; iv; Female; F344"}, "Rat [25]": {"system": "Rat", "experiment": "concentration in plasma after dosing", "settings": "dosed: Fluorotelomer alcohol 8+2, 12 mg/kg, iv, Male, F344"}, "Rat [26]": {"system": "Rat", "experiment": "concentration in plasma after dosing", "settings": "4 h; dosed: Thiodiglycolic Acid; 20 mg/kg; iv; Female; Harlan Sprague Dawley"}, "Rat [27]": {"system": "Rat", "experiment": "concentration in thymus after dosing", "settings": "6.667 h; dosed: Thiodiglycolic Acid; 20 mg/kg; iv; Female; Harlan Sprague Dawley"}, "Rat [28]": {"system": "Rat", "experiment": "concentration in thymus after dosing", "settings": "4 h; dosed: Thiodiglycolic Acid; 20 mg/kg; iv; Male; Harlan Sprague Dawley"}, "Rat [29]": {"system": "Rat", "experiment": "concentration in liver after dosing", "settings": "4 h; dosed: Thiodiglycolic Acid; 20 mg/kg; iv; Female; Harlan Sprague Dawley"}, "Rat [30]": {"system": "Rat", "experiment": "concentration in liver after dosing", "settings": "5.333 h; dosed: Thiodiglycolic Acid; 20 mg/kg; iv; Female; Harlan Sprague Dawley"}, "Rat [31]": {"system": "Rat", "experiment": "concentration in thymus after dosing", "settings": "40 min; dosed: Thiodiglycolic Acid; 20 mg/kg; iv; Female; Harlan Sprague Dawley"}, "Rat [32]": {"system": "Rat", "experiment": "concentration in plasma after dosing", "settings": "2 h; dosed: Thiodiglycolic Acid; 20 mg/kg; iv; Female; Harlan Sprague Dawley"}, "Rat [33]": {"system": "Rat", "experiment": "concentration in liver after dosing", "settings": "10 min; dosed: Thiodiglycolic Acid; 20 mg/kg; iv; Female; Harlan Sprague Dawley"}, "Rat [34]": {"system": "Rat", "experiment": "concentration in heart after dosing", "settings": "3 h; dosed: Thiodiglycolic Acid; 20 mg/kg; iv; Female; Harlan Sprague Dawley"}, "Rat [35]": {"system": "Rat", "experiment": "concentration in plasma after dosing", "settings": "4 h; dosed: Thiodiglycolic Acid; 20 mg/kg; iv; Male; Harlan Sprague Dawley"}, "Rat [36]": {"system": "Rat", "experiment": "concentration in liver after dosing", "settings": "1 h; dosed: Thiodiglycolic Acid; 20 mg/kg; iv; Female; Harlan Sprague Dawley"}, "Rat [37]": {"system": "Rat", "experiment": "concentration in liver after dosing", "settings": "40 min; dosed: Thiodiglycolic Acid; 20 mg/kg; iv; Male; Harlan Sprague Dawley"}, "Rat [38]": {"system": "Rat", "experiment": "concentration in plasma after dosing", "settings": "6 h; dosed: Primidone; 80 mg/kg; oral; Male; F344"}, "Rat [39]": {"system": "Rat", "experiment": "concentration in plasma after dosing", "settings": "18 h; dosed: Primidone; 80 mg/kg; oral; Female; F344"}}}
{"smiles": "O=C(O)C(F)(F)C(F)(F)C(F)(F)C(F)(F)C(F)(F)C(F)(F)C(F)(F)C(F)(F)C(F)(F)F", "note": "[Perfluorodecanoic acid]", "values": [{"measurement": "concentration in brain", "setting": "Rat [1]", "result": 917, "unit": "ng/g"}, {"measurement": "concentration in liver", "setting": "Rat [2]", "result": 13300, "unit": "ng/g"}, {"measurement": "concentration in brain", "setting": "Rat [3]", "result": 2560, "unit": "ng/g"}, {"measurement": "concentration in plasma", "setting": "Rat [4]; 24 h", "result": 4.28, "unit": "µg/mL"}, {"measurement": "concentration in plasma", "setting": "Rat [4]; 1848 h", "result": 0.646, "unit": "µg/mL"}, {"measurement": "concentration in liver", "setting": "Rat [5]", "result": 105000, "unit": "ng/g"}, {"measurement": "concentration in liver", "setting": "Rat [6]", "result": 6380, "unit": "ng/g"}]}
{"smiles": "CCCCOC(=O)c1ccccc1C(=O)O", "note": "[Mono-n-butyl phthalate]", "values": [{"measurement": "concentration in plasma", "setting": "Rat [7]", "result": 0.601, "unit": "µg/mL"}]}
{"smiles": "O=C(O)C(Cl)Cl", "note": "[dichloroacetic acid]", "values": [{"measurement": "concentration in plasma", "setting": "Rat [8]", "result": 39.4, "unit": "µg/mL"}]}
{"smiles": "Cc1cccc(Nc2cc(Cl)nc(SCC(=O)O)n2)c1C", "values": [{"measurement": "concentration in plasma", "setting": "Rat [9]", "result": 0.382, "unit": "µg/mL"}, {"measurement": "concentration in plasma", "setting": "Rat [10]; 0.5 h", "result": 1.18, "unit": "µg/mL"}, {"measurement": "concentration in plasma", "setting": "Rat [10]; 6 h", "result": 0.202, "unit": "µg/mL"}]}
{"smiles": "ClCCOCOCCCl", "note": "[Bis 2-Chloroethoxy Methane]", "values": [{"measurement": "concentration in liver", "setting": "Rat [11]", "result": 564, "unit": "ng/g"}, {"measurement": "concentration in liver", "setting": "Rat [12]", "result": 2550, "unit": "ng/g"}, {"measurement": "concentration in heart", "setting": "Rat [13]", "result": 116, "unit": "ng/g"}, {"measurement": "concentration in liver", "setting": "Rat [14]", "result": 42.7, "unit": "ng/g"}, {"measurement": "concentration in plasma", "setting": "Rat [15]", "result": 0.0833, "unit": "µg/mL"}, {"measurement": "concentration in thymus", "setting": "Rat [16]", "result": 61.4, "unit": "ng/g"}, {"measurement": "concentration in heart", "setting": "Rat [17]", "result": 2450, "unit": "ng/g"}, {"measurement": "concentration in plasma", "setting": "Rat [18]", "result": 0.0652, "unit": "µg/mL"}, {"measurement": "concentration in liver", "setting": "Rat [19]", "result": 734, "unit": "ng/g"}, {"measurement": "concentration in heart", "setting": "Rat [20]", "result": 54.3, "unit": "ng/g"}, {"measurement": "concentration in thymus", "setting": "Rat [21]", "result": 78.9, "unit": "ng/g"}, {"measurement": "concentration in plasma", "setting": "Rat [22]", "result": 0.9, "unit": "µg/mL"}, {"measurement": "concentration in thymus", "setting": "Rat [23]", "result": 478, "unit": "ng/g"}, {"measurement": "concentration in thymus", "setting": "Rat [24]", "result": 3420, "unit": "ng/g"}]}
{"smiles": "OCCC(F)(F)C(F)(F)C(F)(F)C(F)(F)C(F)(F)C(F)(F)C(F)(F)C(F)(F)F", "note": "[Fluorotelomer alcohol 8+2]", "values": [{"measurement": "concentration in plasma", "setting": "Rat [25]; 0.75 h", "result": 0.756, "unit": "µg/mL"}, {"measurement": "concentration in plasma", "setting": "Rat [25]; 12 h", "result": 0.0133, "unit": "µg/mL"}]}
{"smiles": "O=C(O)CSCC(=O)O", "note": "[Thiodiglycolic Acid]", "values": [{"measurement": "concentration in plasma", "setting": "Rat [26]", "result": 0.325, "unit": "µg/mL"}, {"measurement": "concentration in thymus", "setting": "Rat [27]", "result": 263, "unit": "ng/g"}, {"measurement": "concentration in thymus", "setting": "Rat [28]", "result": 904, "unit": "ng/g"}, {"measurement": "concentration in liver", "setting": "Rat [29]", "result": 7460, "unit": "ng/g"}, {"measurement": "concentration in liver", "setting": "Rat [30]", "result": 4800, "unit": "ng/g"}, {"measurement": "concentration in thymus", "setting": "Rat [31]", "result": 3420, "unit": "ng/g"}, {"measurement": "concentration in plasma", "setting": "Rat [32]", "result": 1.56, "unit": "µg/mL"}, {"measurement": "concentration in liver", "setting": "Rat [33]", "result": 10200, "unit": "ng/g"}, {"measurement": "concentration in heart", "setting": "Rat [34]", "result": 1150, "unit": "ng/g"}, {"measurement": "concentration in plasma", "setting": "Rat [35]", "result": 0.339, "unit": "µg/mL"}, {"measurement": "concentration in liver", "setting": "Rat [36]", "result": 60100, "unit": "ng/g"}, {"measurement": "concentration in liver", "setting": "Rat [37]", "result": 176000, "unit": "ng/g"}]}
{"smiles": "CCC1(c2ccccc2)C(=O)NC(=O)NC1=O", "note": "[Phenobarbital]", "values": [{"measurement": "concentration in plasma", "setting": "Rat [38]", "result": 5.32, "unit": "µg/mL"}, {"measurement": "concentration in plasma", "setting": "Rat [39]", "result": 1.9, "unit": "µg/mL"}]}
